Read-outs that look alike come from different tables or passages of the source.
Biological target: T1, IRE1 (IRE1α, Inositol requiring enzyme 1α) (Homo sapiens, UniProt O75460)
T1 construct: gene ERN1; recombinant IRE1 (aa 465–977, His & GST Tag); cytosolic domain
Experiment: in vitro fluorescence RNase assay, cleavage of XBP1 mini-probe (Cy5)
Type: biochemical

T1 sequence (O75460 465-977): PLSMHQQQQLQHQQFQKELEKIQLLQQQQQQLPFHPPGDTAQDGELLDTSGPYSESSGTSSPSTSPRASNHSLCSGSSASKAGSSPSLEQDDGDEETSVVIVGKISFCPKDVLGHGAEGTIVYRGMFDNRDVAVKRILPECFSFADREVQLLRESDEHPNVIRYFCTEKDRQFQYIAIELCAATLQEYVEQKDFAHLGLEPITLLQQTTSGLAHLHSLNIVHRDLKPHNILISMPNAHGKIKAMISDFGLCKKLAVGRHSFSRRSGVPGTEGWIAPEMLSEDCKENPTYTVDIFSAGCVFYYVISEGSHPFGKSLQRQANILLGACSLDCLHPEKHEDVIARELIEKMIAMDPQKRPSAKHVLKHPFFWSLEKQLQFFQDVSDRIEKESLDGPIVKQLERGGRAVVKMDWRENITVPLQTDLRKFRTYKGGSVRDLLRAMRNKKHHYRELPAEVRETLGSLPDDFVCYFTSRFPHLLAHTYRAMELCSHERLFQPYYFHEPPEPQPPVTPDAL

| IC50 (read-out: IC50) [nM] | Structure (SMILES) | IC50 [nM] |
| --- | --- | --- |
|  | Nc1nc2[nH]cc(CCc3ccc(C(=O)N[C@@H](CCC(=O)O)C(=O)O)cc3)c2c(=O)[nH]1 [PMT, pemetrexed] | 260 ± 200 |
|  | C[C@@H]1O[C@@H](Oc2c(-c3ccc(O)c(O)c3)oc3cc(O)cc(O)c3c2=O)[C@H](O)[C@H](O)[C@H]1O [Qi, quercitrin] | 230 ± 100 |
| 330 ± 300 | NC[C@@H]1O[C@H](O[C@H]2[C@@H](O)[C@H](O[C@@H]3[C@@H](O)[C@H](N)C[C@H](N)[C@H]3O[C@H]3O[C@H](CN)[C@@H](O)[C@H](O)[C@H]3N)O[C@@H]2CO)[C@H](N)[C@@H](O)[C@@H]1O [neomycin] |  |
|  | C[C@@H]1O[C@@H](OC[C@H]2O[C@@H](Oc3c(-c4ccc(O)c(O)c4)oc4cc(O)cc(O)c4c3=O)[C@H](O)[C@@H](O)[C@@H]2O)[C@H](O)[C@H](O)[C@H]1O [rutin] | 530 ± 300 |

— article PMC9010685, “Sensor dimer disruption as a new mode of action to block the IRE1-mediated unfolded protein response” (Computational and Structural Biotechnology Journal, 2022)
